Data: patent publication US9340590B2 (priority 2011, dated 2016)
Like-named read-outs stand apart in the source and are kept apart here. Positions of bridges follow the written chain, without caps; N, C: chain ends. Residues, ends and D or L forms follow the SMILES beside them.

Molecular target: hNav1.3 (Homo sapiens, UniProt Q9NY46)
Assay: cell-based
Details: for IC50: IonWorks Quattro, read-out: IWQ Use Nav1.3
[1] = use-dependent protocol, hNav1.3

Chain of hNav1.3 (Q9NY46 whole entry, looked up): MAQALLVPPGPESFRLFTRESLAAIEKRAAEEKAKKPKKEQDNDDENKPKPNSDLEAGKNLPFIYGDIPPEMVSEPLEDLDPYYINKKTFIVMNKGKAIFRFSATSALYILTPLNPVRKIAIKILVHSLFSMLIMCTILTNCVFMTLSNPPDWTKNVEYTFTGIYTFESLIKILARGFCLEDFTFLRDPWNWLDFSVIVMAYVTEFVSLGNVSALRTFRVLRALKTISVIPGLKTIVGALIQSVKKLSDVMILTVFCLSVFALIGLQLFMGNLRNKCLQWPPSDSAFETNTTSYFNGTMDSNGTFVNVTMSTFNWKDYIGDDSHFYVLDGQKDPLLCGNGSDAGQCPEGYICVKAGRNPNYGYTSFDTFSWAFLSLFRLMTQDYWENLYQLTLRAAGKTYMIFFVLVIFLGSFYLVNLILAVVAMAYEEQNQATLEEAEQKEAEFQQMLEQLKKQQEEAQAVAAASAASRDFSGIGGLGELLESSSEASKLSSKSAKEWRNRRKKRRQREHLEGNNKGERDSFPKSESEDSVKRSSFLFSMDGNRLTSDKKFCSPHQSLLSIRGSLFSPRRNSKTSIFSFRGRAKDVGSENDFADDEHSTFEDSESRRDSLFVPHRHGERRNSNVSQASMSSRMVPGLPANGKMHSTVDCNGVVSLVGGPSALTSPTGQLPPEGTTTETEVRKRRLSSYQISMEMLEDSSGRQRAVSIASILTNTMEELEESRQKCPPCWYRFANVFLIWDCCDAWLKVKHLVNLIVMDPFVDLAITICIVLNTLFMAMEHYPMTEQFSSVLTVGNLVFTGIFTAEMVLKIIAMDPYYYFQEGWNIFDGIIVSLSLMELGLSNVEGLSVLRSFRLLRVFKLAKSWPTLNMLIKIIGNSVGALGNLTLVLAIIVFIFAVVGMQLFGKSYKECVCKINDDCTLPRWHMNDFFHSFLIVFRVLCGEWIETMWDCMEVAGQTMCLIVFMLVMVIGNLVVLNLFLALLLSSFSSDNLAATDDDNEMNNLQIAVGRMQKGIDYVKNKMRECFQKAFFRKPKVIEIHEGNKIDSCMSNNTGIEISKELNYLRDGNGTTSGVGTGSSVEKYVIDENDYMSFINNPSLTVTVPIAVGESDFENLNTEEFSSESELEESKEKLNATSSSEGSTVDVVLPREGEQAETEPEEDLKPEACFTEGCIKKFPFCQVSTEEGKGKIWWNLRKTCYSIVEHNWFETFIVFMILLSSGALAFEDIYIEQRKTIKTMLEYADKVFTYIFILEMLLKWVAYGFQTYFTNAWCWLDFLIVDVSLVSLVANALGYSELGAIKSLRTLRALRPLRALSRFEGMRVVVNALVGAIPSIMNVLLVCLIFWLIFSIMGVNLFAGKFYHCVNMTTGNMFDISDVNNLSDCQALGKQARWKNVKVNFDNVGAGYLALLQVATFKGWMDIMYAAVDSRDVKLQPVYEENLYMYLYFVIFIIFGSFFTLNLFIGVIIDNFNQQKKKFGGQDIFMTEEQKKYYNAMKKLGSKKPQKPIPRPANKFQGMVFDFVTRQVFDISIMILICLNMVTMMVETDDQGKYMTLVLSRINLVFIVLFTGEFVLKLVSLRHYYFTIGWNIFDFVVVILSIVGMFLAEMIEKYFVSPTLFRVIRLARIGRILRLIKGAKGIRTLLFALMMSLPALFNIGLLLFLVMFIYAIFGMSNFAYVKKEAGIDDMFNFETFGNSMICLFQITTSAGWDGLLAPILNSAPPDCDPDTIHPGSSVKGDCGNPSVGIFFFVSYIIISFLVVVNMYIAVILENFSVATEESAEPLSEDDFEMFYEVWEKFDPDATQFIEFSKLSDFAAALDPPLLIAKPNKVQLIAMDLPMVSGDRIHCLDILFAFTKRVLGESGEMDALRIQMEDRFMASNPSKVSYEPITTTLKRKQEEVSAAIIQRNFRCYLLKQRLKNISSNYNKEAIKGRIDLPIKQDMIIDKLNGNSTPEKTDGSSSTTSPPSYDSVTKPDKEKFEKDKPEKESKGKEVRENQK

`CC[C@H](C)[C@@H]1NC(=O)[C@@H]2CSSC[C@@H]3NC(=O)[C@H](C(C)C)NC(=O)[C@H](CC(C)C)NC(=O)[C@H](CC(N)=O)NC(=O)[C@@H]4CCCN4C(=O)[C@H](CCCNC(=N)N)NC(=O)[C@H](CSSC[C@H](NC(=O)[C@@H](N)CC(=O)O)C(=O)N[C@@H](CC(C)C)C(=O)NCC(=O)N[C@@H](Cc4ccccc4)C(=O)N[C@@H](CCSC)C(=O)N[C@@H](CCCNC(=N)N)C(=O)N[C@@H](CCCCN)C(=O)N2)NC(=O)[C@H](CSSC[C@@H](C(=O)N[C@@H](CCCCN)C(=O)N[C@@H](Cc2ccc(O)cc2)C(=O)N[C@H](C(=O)N[C@@H](Cc2ccccc2)C(N)=O)C(C)C)NC(=O)[C@H](Cc2c[nH]c4ccccc24)NC(=O)[C@H](CC(=O)O)NC(=O)[C@H](Cc2cnc[nH]2)NC(=O)[C@H]([C@@H](C)O)NC(=O)[C@H](CCCNC(=N)N)NC(=O)[C@H](CO)NC3=O)NC(=O)[C@H](CCCCN)NC(=O)[C@H](CC(=O)O)NC(=O)[C@H](CC(N)=O)NC(=O)[C@H](CC(=O)O)NC(=O)[C@@H]2CCCN2C1=O` [SEQ ID NO: 750, [Asp28]GpTx-1] (H-DCLGFMRKCIPDNDKCCRPNLVCSRTHDWCKYVF-NH2; disulfide 2-17, 9-23, 16-30) showed an IC50 (use-dependent block, hNav1.3) of 0.77 µM.

With `CSCC[C@@H]1NC(=O)[C@H](Cc2ccccc2)NC(=O)CNC(=O)[C@H](CC(C)C)NC(=O)[C@@H](NC(=O)[C@@H](N)CC(=O)O)CSSC[C@@H]2NC(=O)[C@@H]3CSSC[C@@H](C(=O)N[C@@H](CCCCN)C(=O)N[C@@H](Cc4ccc(O)cc4)C(=O)N[C@H](C(=O)N[C@@H](Cc4ccccc4)C(N)=O)C(C)C)NC(=O)[C@H](Cc4c[nH]c5ccccc45)NC(=O)[C@H](CCCCN)NC(=O)[C@H](Cc4cnc[nH]4)NC(=O)[C@H]([C@@H](C)O)NC(=O)[C@H](CCCNC(=N)N)NC(=O)[C@H](CO)NC(=O)[C@H](CSSC[C@H](NC(=O)[C@H](CCCCN)NC(=O)[C@H](CCCNC(=N)N)NC1=O)C(=O)N[C@@H](CCSC)C(=O)N1CCC[C@H]1C(=O)N[C@@H](CC(=O)O)C(=O)N[C@@H](CC(N)=O)C(=O)N[C@@H](CC(=O)O)C(=O)N[C@@H](CCCCN)C(=O)N3)NC(=O)[C@H](C(C)C)NC(=O)[C@H](CC(C)C)NC(=O)[C@H](CC(N)=O)NC(=O)[C@@H]1CCCN1C(=O)[C@H](CCCNC(=N)N)NC2=O` [compound 307] (H-DCLGFMRKCMPDNDKCCRPNLVCSRTHKWCKYVF-NH2; disulfide 2-17, 9-23, 16-30) the IC50 (Use) was 0.1 µM.

Work on `CSCC[C@@H]1NC(=O)[C@H](Cc2ccccc2)NC(=O)CNC(=O)[C@H](CC(C)C)NC(=O)[C@@H](NC(=O)[C@@H](N)CC(=O)O)CSSC[C@@H]2NC(=O)[C@@H]3CSSC[C@@H](C(=O)N[C@@H](CCCCN)C(=O)N[C@@H](Cc4ccc(O)cc4)C(=O)N[C@H](C(=O)N[C@@H](Cc4ccccc4)C(N)=O)C(C)C)NC(=O)[C@H](Cc4c[nH]c5ccccc45)NC(=O)[C@H](CCCCN)NC(=O)[C@H](Cc4cnc[nH]4)NC(=O)[C@H]([C@@H](C)O)NC(=O)[C@H](CCCNC(=N)N)NC(=O)[C@H](CO)NC(=O)[C@H](CSSC[C@H](NC(=O)[C@H](CCCCN)NC(=O)[C@H](CCCNC(=N)N)NC1=O)C(=O)N[C@@H]([C@@H](C)O)C(=O)N1CCC[C@H]1C(=O)N[C@@H](CC(=O)O)C(=O)N[C@@H](CC(N)=O)C(=O)N[C@@H](CC(=O)O)C(=O)N[C@@H](CCCCN)C(=O)N3)NC(=O)[C@H](C(C)C)NC(=O)[C@H](CC(C)C)NC(=O)[C@H](CC(N)=O)NC(=O)[C@@H]1CCCN1C(=O)[C@H](CCCNC(=N)N)NC2=O` [compound 309] (H-DCLGFMRKCTPDNDKCCRPNLVCSRTHKWCKYVF-NH2; disulfide 2-17, 9-23, 16-30) yielded an IC50 (Use) of 0.06 µM.

Work on `CC[C@H](C)[C@@H]1NC(=O)[C@@H]2CSSC[C@@H]3NC(=O)[C@H](C(C)C)NC(=O)[C@H](CC(C)C)NC(=O)[C@H](CC(N)=O)NC(=O)[C@@H]4CCCN4C(=O)[C@H](CCCNC(=N)N)NC(=O)[C@H](CSSC[C@H](NC(=O)[C@@H](N)CC(=O)O)C(=O)N[C@@H](CC(C)C)C(=O)NCC(=O)N[C@@H](Cc4ccccc4)C(=O)N[C@@H](Cc4ccccc4)C(=O)N[C@@H](CCCNC(=N)N)C(=O)N[C@@H](CCCCN)C(=O)N2)NC(=O)[C@H](CSSC[C@@H](C(=O)N[C@@H](CCCCN)C(=O)N[C@@H](Cc2cn(CCOCCOCCOCCOCCOCCOCCOCCOCCOCCOCCN)nn2)C(=O)N[C@H](C(=O)N[C@@H](Cc2cccc4ccccc24)C(N)=O)C(C)C)NC(=O)[C@H](Cc2c[nH]c4ccccc24)NC(=O)[C@H](CCCCN)NC(=O)[C@H](Cc2c[nH]cn2)NC(=O)[C@H]([C@@H](C)O)NC(=O)[C@H](CCCNC(=N)N)NC(=O)[C@H](CO)NC3=O)NC(=O)[C@H](CCCCN)NC(=O)[C@H](CC(=O)O)NC(=O)[C@H](CC(N)=O)NC(=O)[C@H](CC(=O)O)NC(=O)[C@@H]2CCCN2C1=O` [compound 559] yielded a Nav1.7/Nav1.3 (ratio of IWQ Use IC50 values) of 2.3.

`CC[C@H](C)[C@@H]1NC(=O)[C@@H]2CSSC[C@@H]3NC(=O)[C@H](C(C)C)NC(=O)[C@H](CC(C)C)NC(=O)[C@H](CC(N)=O)NC(=O)[C@@H]4CCCN4C(=O)[C@H](CCCNC(=N)N)NC(=O)[C@H](CSSC[C@H](NC(=O)[C@@H](N)CC(=O)O)C(=O)N[C@@H](CC(C)C)C(=O)NCC(=O)N[C@@H](Cc4ccccc4)C(=O)N[C@@H](Cc4ccccc4)C(=O)N[C@@H](CCCNC(=N)N)C(=O)N[C@@H](CCCCN)C(=O)N2)NC(=O)[C@H](CSSC[C@@H](C(=O)N[C@@H](CCCCN)C(=O)N[C@@H](Cc2ccc(O)cc2)C(=O)N[C@H](C(=O)N[C@@H](Cc2ccccc2)C(=O)N[C@@H](Cc2cn(CCOCCOCCOCCOCCOCCOCCOCCOCCOCCOCCN)nn2)C(N)=O)C(C)C)NC(=O)[C@H](Cc2c[nH]c4ccccc24)NC(=O)[C@H](CCCCN)NC(=O)[C@H](Cc2c[nH]cn2)NC(=O)[C@H](CC(C)C)NC(=O)[C@H](CCCNC(=N)N)NC(=O)[C@H](CO)NC3=O)NC(=O)[C@H](CCCCN)NC(=O)[C@H](CC(=O)O)NC(=O)[C@H](CC(N)=O)NC(=O)[C@H](CC(=O)O)NC(=O)[C@@H]2CCCN2C1=O` [compound 588] was tested, and the Nav1.7/Nav1.3 (ratio of IWQ Use IC50 values) was 3.3.

For `CC[C@H](C)[C@@H]1NC(=O)[C@@H]2CSSC[C@@H]3NC(=O)[C@H](C(C)C)NC(=O)[C@H](CC(C)C)NC(=O)[C@H](CC(N)=O)NC(=O)[C@@H]4CCCN4C(=O)[C@H](CCCNC(=N)N)NC(=O)[C@H](CSSC[C@H](NC(=O)[C@@H](N)CC(=O)O)C(=O)N[C@@H](CC(C)C)C(=O)NCC(=O)N[C@H](C)C(=O)N[C@@H](CC(C)C)C(=O)N[C@@H](CCCNC(=N)N)C(=O)N[C@@H](CCCCN)C(=O)N2)NC(=O)[C@H](CSSC[C@@H](C(=O)N[C@@H](CCCCN)C(=O)N[C@@H](Cc2ccc(O)cc2)C(=O)N[C@H](C(=O)N[C@@H](Cc2ccccc2)C(N)=O)C(C)C)NC(=O)[C@H](Cc2c[nH]c4ccccc24)NC(=O)[C@H](CCCCN)NC(=O)[C@H](Cc2c[nH]cn2)NC(=O)[C@H]([C@@H](C)O)NC(=O)[C@H](CCCNC(=N)N)NC(=O)[C@H](CO)NC3=O)NC(=O)[C@H](CCCCN)NC(=O)[C@H](CC(=O)O)NC(=O)[C@H](CC(N)=O)NC(=O)[C@H](CC(=O)O)NC(=O)[C@@H]2CCCN2C1=O` [compound 633], the IC50 [1] was 11.5 µM.

For `CC[C@H](C)[C@@H]1NC(=O)[C@@H]2CSSC[C@@H]3NC(=O)[C@H](C(C)C)NC(=O)[C@H](CC(C)C)NC(=O)[C@H](CC(N)=O)NC(=O)[C@@H]4CCCN4C(=O)[C@H](CCCNC(=N)N)NC(=O)[C@H](CSSC[C@H](NC(=O)[C@@H](N)CC(=O)O)C(=O)N[C@@H](CC(C)C)C(=O)NCC(=O)N[C@@H](Cc4ccc(OC)c(OC)c4)C(=O)N[C@@H](CCSC)C(=O)N[C@@H](CCCNC(=N)N)C(=O)N[C@@H](CCCCN)C(=O)N2)NC(=O)[C@H](CSSC[C@@H](C(=O)N[C@@H](CCCCN)C(=O)N[C@@H](Cc2ccc(O)cc2)C(=O)N[C@H](C(=O)N[C@@H](Cc2ccccc2)C(N)=O)C(C)C)NC(=O)[C@H](Cc2c[nH]c4ccccc24)NC(=O)[C@H](CCCCN)NC(=O)[C@H](Cc2c[nH]cn2)NC(=O)[C@H]([C@@H](C)O)NC(=O)[C@H](CCCNC(=N)N)NC(=O)[C@H](CO)NC3=O)NC(=O)[C@H](CCCCN)NC(=O)[C@H](CC(=O)O)NC(=O)[C@H](CC(N)=O)NC(=O)[C@H](CC(=O)O)NC(=O)[C@@H]2CCCN2C1=O` [compound 652], the Nav1.7/Nav1.3 (ratio of IWQ Use values, Nav1.7 over Nav1.3) was 0.8.

Work on `CC[C@H](C)[C@@H]1NC(=O)[C@@H]2CSSC[C@@H]3NC(=O)[C@H](C(C)C)NC(=O)[C@H](CC(C)C)NC(=O)[C@H](CC(N)=O)NC(=O)[C@@H]4CCCN4C(=O)[C@H](CCCNC(=N)N)NC(=O)[C@H](CSSC[C@H](NC(=O)[C@@H](N)CC(=O)O)C(=O)N[C@@H](CC(C)C)C(=O)NCC(=O)N[C@@H](C)C(=O)N[C@@H](CC(C)C)C(=O)N[C@@H](CCCNC(=N)N)C(=O)N[C@@H](CCCCN)C(=O)N2)NC(=O)[C@H](CSSC[C@@H](C(=O)N[C@@H](CCCCN)C(=O)N[C@@H](Cc2ccc(O)cc2)C(=O)N[C@H](C(=O)N[C@@H](Cc2ccccc2)C(N)=O)C(C)C)NC(=O)[C@H](Cc2c[nH]c4ccccc24)NC(=O)[C@H](CCCCN)NC(=O)[C@H](Cc2cnc[nH]2)NC(=O)[C@H]([C@@H](C)O)NC(=O)[C@H](CCCNC(=N)N)NC(=O)[C@H](CO)NC3=O)NC(=O)[C@H](CCCCN)NC(=O)[C@H](CC(=O)O)NC(=O)[C@H](CC(N)=O)NC(=O)[C@H](CC(=O)O)NC(=O)[C@@H]2CCCN2C1=O` [compound 696] yielded an IC50 [1] of 0.75 µM.
